Data set [1] has as its system HBV replication in HepAD38 cells. The data set can be described thus: Anti-HBV replication assay in HepAD38 cells (QPCR of extracellular HBV DNA). It is filed as cell-based, HBV (genotype D, serotype ayw). Conditions: Hepatitis B virus. As to the method:
The anti-HBV activity of the Capsid Assembly Modulators (CAMs) was evaluated in a cell based assay utilizing the human hepatoma cell line HepAD38 (Ladner, S K., et al., 1998). HepAD38 cells were derived from the parental line, HepG2, that were stably transfected with a construct containing an HBV genome (genotype D, serotype ayw) under the control of a tetracycline repressible CMV promoter. Upon removal of tetracycline, viral pre-genomic RNA (pgRNA) and mRNAs are expressed and infectious viral particles are assembled and secreted into the culture medium providing a reliable, robust system to measure multiple steps of the HBV life cycle. Disruption of capsid formation results in reduced levels of DNA-containing virus particles that are released into the culture supernatant. To quantify the effect of CAMs on HBV replication, we developed a sensitive QPCR-based assay that measures extracellular HBV DNA levels upon treatment of HepAD38 cells with various concentrations of test compounds.
HepAD38 cells were maintained in DMEM/F12 medium containing 10% FBS, 400 μg/mL G418 and 0.3 μg/mL tetracycline (tet+ media) to maintain repression of HBV replication. To evaluate each compound, HepAD38 cells were seeded into 24-well collagen coated culture plates (Corning BioCoat) at a density of 200,000 cells per well in 1 mL of medium without tetracycline (tet-media) and allowed to adhere overnight at 37° C., 5% CO2 in a humidified incubator. The following day, media was refreshed and a dose range of each compound was prepared by performing 1 log10 serial dilutions in 100% DMSO at 200× the desired assay concentration. Dilutions were then added to the cells resulting in a final dose range of 1 μM to 10 μM and the plates were returned to the incubator. Following 7 days of incubation, culture supernatants were harvested and HBV DNA levels were evaluated by QPCR and compared to the vehicle treated control wells (i.e. DMSO alone).
To quantify HBV DNA levels, cell culture supernatants were diluted 1:10 in sterile, nuclease-free water (Gibco). The diluted supernatants were subsequently added to a PCR master mix containing 1× Roche Light Cycler Master Mix, 0.5 μM forward primer, 0.5 μM reverse primer (Fwd: 5′-[…] (SEQ ID NO 1); Rev: 5′-[…] (SEQ ID NO 2)), 0.2 μM Roche Universal Probe Library Probe 25. The volume was brought to 20 μL with nuclease-free water and amplification of the HBV target sequence was performed using a Roche LightCycler 480 QPCR instrument. PCR extended out to 45 cycles with each cycle consisting of a denaturation step at 95° C. for 10 sec., followed by an annealing step at 60° C. for 10 sec. and a brief extension step at 72° C. for 1 sec.
Extracellular HBV DNA levels, expressed in copies/mL, were determined by comparison to a standard curve (10^2-10^9 copies/mL) using the Roche LightCycler analysis software. These values were subsequently converted to percent inhibition of HBV replication by dividing the HBV DNA levels in the experimental samples with those obtained from the vehicle control (˜1-2×10^5 copies/mL). Potency, expressed as an EC50 (the effective concentration required to inhibit 50% of HBV replication), was calculated from the dose-response curve using a 4-parameter non-linear regression analysis (GraphPad Prism). The nucleoside analog inhibitor entecavir was used as a positive control to validate each assay run. The EC50 value of entecavir in the HepAD38 assay was 0.5 nM, as previously reported in the literature.

Data set [2] is described as follows: In vitro cytotoxicity assay (MTT cell viability) in HepG2 cells. Conditions: human. Format: cell-based, human. As to the method: To evaluate antiviral selectivity, the cytotoxic activity of each compound was determined using a standard cell viability assay performed on the parental HepG2 cell line. Cell viability was determined by measuring the conversion of 3-(4,5-dimethylthiazol-2-yl)-2,5-diphenyltetrazolium bromide (MTT) to the insoluble formazan salt crystal that occurs in live cells. Briefly, HepG2 cells were seeded in 96-well plates at a density of 20,000 cells per well in EMEM+10% FBS (complete growth medium) and allowed to adhere overnight in a 37° C., 5% CO2 humidified incubator. The next day, test agents were prepared by performing 8 half-log10 serial dilutions in 100% DMSO at 200× the final desired concentration in the assay. Compounds were tested over a range of concentrations from 30 μM to 1.0 nM in the assay. HepG2 cells were incubated in the presence of various concentrations of CAMs for 7 days in a 37° C., 5% CO2 humidified incubator. At the completion of the 7-day incubation period, MTT reagent was added to each well and the mixture was incubated for an additional 3-4 hours. At the completion of the incubation period, all wells were aspirated to remove the culture medium. The formazan crystals were solubilized from the cell monolayers with 100% DMSO. Plates were briefly mixed on an orbital shaker and absorbance was measured at 492 nm using a Perkin-Elmer EnVision multi-label plate reader. All absorbance values were converted to a percentage of the signal obtained from the vehicle treated controls. Absorbance values at 492 nm are directly proportional to the number of viable cells present in the sample. A CC50 value (cytotoxic concentration that results in loss of 50% cell viability) was calculated from the dose-response curve by 4-parameter, non-linear regression analysis using the GraphPad Prism software. The positive control compound, staurosporine, reduced the viability of HepG2 cells in a dose-dependent manner (CC50=100 nM).

[3] abbreviates: 168 h, 7 days incubation, extracellular HBV DNA by QPCR, read-out: Anti-HBV EC50.

SMILES strings stand for the structures. Where two headings read alike, the source gives them in different places.

On to `Cc1c(C(=O)Nc2ccnc(Cl)c2)c(C)n(C)c1C(=O)C(=O)NC1(C(F)(F)F)CCOCC1` [Example 253, N-(2-chloropyridin-4-yl)-1,2,4-trimethyl-5-(2-oxo-2-((4-(trifluoromethyl)tetrahydro-2H-pyran-4-yl)amino)acetyl)-1H-pyrrole-3-carboxamide], for which the EC50 (in general, the midpoint of the concentration-response curve) in data set [1] (setting [3]) was less than 0.05 µM. In data set [2], the CC50 (as a rule, the concentration at which the toxic effect on the cells reaches its halfway point) at 7 days was more than 30 µM. As for `Cc1c(C(=O)Nc2ccc(F)c(F)c2)c2n(c1C(=O)C(=O)N[C@H]1COC[C@@H]1O)CCCC2` [Example 457, N-(3,4-difluorophenyl)-3-(2-(((3S,4R)-4-hydroxytetrahydrofuran-3-yl)amino)-2-oxoacetyl)-2-methyl-5,6,7,8-tettrahydroindolizine-1-carboxamide], the EC50 in data set [1] (setting [3]) lay in the range of 0.05 to 0.499 µM. Moreover, in data set [2], the CC50 at 7 days is more than 30 µM. The corresponding values for `Cc1c(C(=O)Nc2cncc(Cl)c2)c(C)n(C)c1C(=O)C(=O)N[C@H](C)C(F)(F)F` [Example 727, (R)-N-(5-chloropyridin-3-yl)-1,2,,4-trimethyl-5-(2-oxo-2-((1,1,1-trifluoropropan-2-yl)amino)acetyl)-1H-pyrrole-3-carboxamide] are less than 0.05 µM and more than 30 µM.

Take `Cc1c(C(=O)Nc2cc(F)c(F)c(F)c2)c(Cl)c(C(=O)C(=O)NCC(C)(C)O)n1C` [Example 372, 4-chloro-5-(2-((2-hydroxy-2-methylpropyl)amino)-2-oxoacetyl)-1,2-dimethyl-N-(3,4,5-trifluorophenyl)-1H-pyrrole-3-carboxamide]: the EC50 in data set [1] (setting [3]) was less than 0.05 µM. This compound returned a CC50 at 7 days in data set [2] of 0.5 to 4.99 µM. As for `Cc1cc(NC(=O)c2c(C)c(C(=O)C(=O)NC3CCN(C4CCSCC4)CC3)n(C)c2C)ccc1F` [Example 654, N-(4-fluoro-3-methylphenyl)-1,2,4-trimethyl-5-(2-oxo-2-((1-(tetrahydro-2H-thiopyran-4-yl)piperidin-4-yl)amino)acetyl)-1H-pyrrole-3-carboxamide], in data set [1] (setting [3]), the EC50 was less than 0.05 µM. Besides, in data set [2], the CC50 at 7 days is more than 30 µM.

For the compound `Cc1c(C(=O)Nc2cc(F)c(F)c(F)c2)c(C)n(C)c1C(=O)C(=O)Nc1ccccn1` [Example 318, 1,2,4-trimethyl-5-(2-oxo-2-(pyridin-2-ylamino)acetyl)-N-(3,4,5-trifluorophenyl)-1H-pyrrole-3-carboxamide], the half-maximal effective concentration (EC50) in data set [1] (setting [3]) lay within 0.05 to 0.499 µM. For the same compound, the 50% cytotoxic concentration (CC50) at 7 days in data set [2] is more than 30 µM. For the compound `Cc1cc(NC(=O)c2c(Cl)c(C(=O)C(=O)N[C@@H]3CCC[C@@H]3O)n(C)c2C)ccc1F` [Example 367, 4-chloro-N-(4-fluoro-3-methylphenyl)-5-(2-(((1R,2S)-2-hydroxycyclopentyl)aminO)-2-oxoacetyl)-1,2-dimethyl-1H-pyrrole-3-carboxamide], the EC50 in data set [1] (setting [3]) was less than 0.05 µM. In data set [2], this compound yielded a CC50 at 7 days of 5 to 30 µM. With `Cc1cc(NC(=O)c2c(C)c(C(=O)C(=O)NC[C@H](C)O)n(C)c2C)ccc1F` [Example 218, (S)-N-(4-fluoro-3-methylphenyl)-5-(2-((2-hydroxypropyl)amino)-2-oxoacetyl)-1,2,4-trimethyl-1H-pyrrole-3-carboxamide], the EC50 in data set [1] (setting [3]) was less than 0.05 µM. The CC50 at 7 days in data set [2] fell in the range of 5 to 30 µM.

As to `Cc1cc(NC(=O)c2c(C)c(C(=O)C(=O)NC(C)(C)CO)n3c2CCCC3)cnc1F` [Example 478, N-(6-fluoro-5-methylpyridin-3-yl)-3-(2-((1-hydroxy-2-methylpropan-2-yl)amino)-2-oxoacetyl)-2-methyl-5,6,7,8-tetrahydroindoliizine-1-carboxamide], the concentration for a half-maximal effect (EC50) in data set [1] (setting [3]) is more than 1 µM. The compound further showed a CC50 at 7 days in data set [2] of more than 30 µM. On to `Cc1c(C(=O)Nc2nccs2)c2n(c1C(=O)C(=O)NC(C)(C)CO)CCCC2` [Example 759, 3-(2-((1-hydroxy-2-methylpropan-2-yl)amino)-2-oxoacetyl)-2-methyl-N-(thiazol-2-yl)-5,6,7,8-tetrahydroindolizine-1-carboxamide], for which the EC50 in data set [1] (setting [3]) was 0.05 to 0.499 µM. The same compound returned a CC50 at 7 days in data set [2] of more than 30 µM.

On to `Cc1cc(NC(=O)c2c(C)c(C(=O)C(=O)NC3(C)CCN(c4ccncn4)CC3)n(C)c2C)ccc1F` [Example 717], for which the EC50 in data set [1] (setting [3]) is less than 0.05 µM. In data set [2], this compound registered a CC50 at 7 days of 5 to 30 µM. The matching figures for `Cc1c(C(=O)Nc2ncc(C(F)(F)F)s2)c2n(c1C(=O)C(=O)NC(C)(C)CO)CCCC2` [Example 757, 3-(2-((1-hydroxy-2-methylpropan-2-yl)amino)-2-oxoacetyl)-2-methyl-N-(5-(trifluoromethyl)thiazol-2-yl)-5,6,7,8-tetrahydroindolizine-1-carboxamide]: 0.05 to 0.499 µM and more than 30 µM.

With `Cc1c(C(=O)Nc2ccnc(F)c2)c(C)n(C)c1C(=O)C(=O)N[C@H](C)C(F)(F)F` [Example 170, (R)—N-(2-fluoropyridin-4-yl)-1,2,4-trimethyl-5-(2-oxo-2-((1,1,1-trifluoropropan-2-yl)amino)acetyl)-1H-pyrrole-3-carboxamide], the concentration giving a half-maximal response (EC50) in data set [1] (setting [3]) was less than 0.05 µM. In data set [2], this compound had a cytotoxic concentration (CC50) at 7 days of more than 30 µM.

Regarding `Cc1cc(NC(=O)c2c(C)c(C(=O)C(=O)NC3CCN(c4cnccn4)CC3)n(C)c2C)ccc1F` [Example 659, N-(4-fluoro-3-methylphenyl)-1,2,4-trimethyl-5-(2-oxo-2-((1-(pyrazin-2-yl)piperidin-4-yl)amino)acetyl)-1H-pyrrole-3-carboxamide], the EC50 in data set [1] (setting [3]) was less than 0.05 µM. The compound also returned a cytotoxic concentration (CC50) at 7 days in data set [2] of more than 30 µM. `Cc1noc(C2(NC(=O)C(=O)c3cc(C(=O)Nc4ccc(F)c(C)c4)c4n3CCCC4)CC2)n1` [Example 418, N-(4-fluoro-3-methylphenyl)-3-(2-((1-(3-methyl-1,2,4-oxadiazol-5-yl)cyclopropyl)amino)-2-oxoacetyl)-5,6,7,8-tetrahydroidolizine-1-carboxamide]: the EC50 in data set [1] (setting [3]) lay within 0.05 to 0.499 µM. The same compound returned a cytotoxic concentration (CC50) at 7 days in data set [2] of more than 30 µM. On to `Cc1c(C(=O)Nc2ccc(F)c(Cl)c2)c(C)n(C)c1C(=O)C(=O)Nc1ccc(F)cn1` [Example 310, N-(3-chloro-4-fluorophenyl)-5-(2-((5-fluoropyridin-2-yl)amino)-2-oxoacetyl)-1,2,4-trimethyl-1H-pyrrole-3-carboxamide], for which the EC50 in data set [1] (setting [3]) is less than 0.05 µM.

In the case of `CN[C@@H]1C[C@H]2O[C@@](C)([C@@H]1OC)n1c3ccccc3c3c4c(c5c6ccccc6n2c5c31)C(=O)NC4` [staurosporine, reference compound], the CC50 at 7 days in data set [2] (positive control, HepG2 cells, 7 days, MTT, read-out: CC50 (loss of 50% cell viability)) was found to be 0.1 µM. Consider `C=C1[C@H](CO)[C@@H](O)C[C@@H]1n1cnc2c(=O)[nH]c(N)nc21` [entecavir, reference compound], for which the EC50 in data set [1] (positive control, read-out: EC50 in the HepAD38 assay) worked out at 0.0005 µM.

The values above are taken from US20190375708A1 (VenatoRx Pharmaceuticals, Inc., priority 2018, published 2019).
